Data from patent US11713318B2, “Short conjugated oligoelectrolytes and uses thereof” (The Regents Of The University Of California, priority 2018, dated 2023).

Columns and labels:
[1] = tested on: S. epidermidis (ATCC 14990); assay: MIC broth microdilution method, Table 3; settings: Staphylococcus epidermidis, ATCC14990
E. coli K12 (ATCC 47076) = assay: MIC broth microdilution method, Table 3; settings: Escherichia coli, ATCC47076
[2] = tested on: Hep G2 (ATCC HB-8065) cells; assay: Cytotoxicity, MTT assay; assay type: cell-based; settings: Homo sapiens, HepG2, 24 h, Hep G2; MTT, 24 hours incubation; read-out: IC50
Experimental: (§1) Before removing the frozen cell stocks from liquid nitrogen, culture medium was pre-warmed to 37° C. The frozen tube was then removed from liquid nitrogen and placed into a 37° C. water bath and shaken gently to thaw the cell stock as quickly as possible. A small portion of the pre-warmed culture medium was added to the cell solution. The cell suspension was then centrifuged at 1000 r/min for 3 minutes. The supernatant was discarded and the cells were resuspended in fresh culture medium.
(§2) NIH 3T3 (ATCC CRL-1658) and Hep G2 (ATCC HB-8065) cells were cultured with DMEM+10% FBS in 100 mm dishes. Cells were lifted for subculture or testing when confluence reached ˜60% by treating with 1× trypsin (incubated for 3 min at 37° C.). J774 (ATCC TIB-67) cells were cultured with DMEM+10% FBS in 100 mm dishes. Cells were lifted for subculture or testing when confluence reached ˜80% using a cell scraper. RAW264.7 (ATCC TIB-71) cells were cultured with DMEM+10% heat-inactivated FBS+1% pen/strep in T75 flasks. Cells were lifted for subculture or testing when confluence reached ˜80% using a cell scraper.
(§3) • 1. Cells were lifted and resuspended in culture medium. The number of cells in the cell suspension was determined using an auto-cell counter: 10 μL of the cell suspension was mixed with 10 μL 1× trypan blue (filtered with 0.2 μm PES filter) and the mixture was loaded onto a cell counting slide. Based on the concentration of viable cells, the cell suspension was further diluted to achieve the desired density. • 2. Cells were seeded in 96 well plates by adding 100 μL final cell suspension column-by-column using a multichannel pipette (5000 cells/well for NIH 3T3, 10000 cells/well for Hep G2, J774 and RAW264.7). The outer wells were block with PBS to reduce the effects of evaporation. One column was filled with only culture medium as a blank. Cells were incubated overnight before adding the test articles. • 3. Test articles were dissolved in 1×PBS (or DMSO) to obtain stocks solution. Stock solutions were pre-warmed before use. […] Serial dilutions (2-fold) of the 10× solutions were made in sterile culture tubes by diluting in 1×PBS (8 dilutions to yield 9 test concentrations). 900 μL of culture media was added to each tube to obtain final drug solution containing 10% PBS (or less than 1% DMSO) for each experimental group. • 4. The original culture medium was gently removed from the 96-well plates using a pipette. 100 μL of the test article solutions prepared in Step 3 were added to rows 2-7 of each column to obtain six replicates for each concentration. Plates were then incubated for 24 hours. • 5. MTT solutions were prepared by dissolving commercial MTT powder in 1×PBS to a concentration of 5 mg/mL. After passing through a 0.22 μm PES filter, the MTT solution was divided into 1 mL portions in sterile centrifuge tubes and stored at −20° C. • 6. MTT stock solutions were removed from the freezer to thaw at room temperature. Before adding MTT solutions, cell cultures were visually inspected and imaged using a microscope (to use as a comparison with MTT results). 10 μL of the 5 mg/mL MTT solution was added to each well and the plate was incubated for 4 hours. • 7. After 4 h incubation, the culture medium/MT solution was removed gently using a pipette. 100 μL of DMSO was added to each well using a multichannel pipette. The 96-well plates were analyzed in a plate reader using the following method: shake for 5 minutes, wait for 30 seconds, and measure absorbance at 570 nm. • 8. Data processing: The average of background Abg was calculated from the blank column. All other data was first treated by subtracting Abg. The average A. and standard deviation Se of each experimental group and the average Ac and standard deviation Sc for control group (with pure culture medium incubation) were then calculated. The cell viability was determined as Ae/Ac×100% and corresponding error as Se/Ae×100%. Significant outliers in any experimental or control group were removed. […]

Cytotoxicity, MTT assay = assay type: cell-based; settings: human, Hep G2 (ATCC HB-8065) cells; Hep G2; at the concentration given as IC50 bound; read-out: cell viability at the highest or lowest test concentration
Experimental: as §1, §2, §3

[3] = tested on: S. aureus ATCC BAA-1717 (MRSA); assay: MIC against resistant strains, Tables 5a-5d; assay type: cell-based; settings: Staphylococcus aureus, n = 3
Experimental: (§4) Compounds described herein were evaluated for growth inhibition against a variety of bacterial species, including strains that have developed resistance to common antibacterial treatments, according to the procedure described herein, or by analogous procedures known to those skilled in the art. Resistant bacterial strains used for compound testing include methicillin-resistant S. aureus (MRSA), vancomycin resistant Enterococci (VRE) and various multi-drug resistant (MDR) strains commonly associated with hospital-acquired (nosocomial) infections, including, but not limited to A. baumannii, K. pnuemoniae, and E. cloacae.

E. faecium 1674620 (VRE) = assay: MIC against resistant strains, Tables 5a-5d; assay type: cell-based; settings: Enterococcus faecium, n = 3
Experimental: as §4

[4] = tested on: A. baumannii 1674627 (MDR); assay: MIC against resistant strains, Tables 5a-5d; assay type: cell-based; settings: Acinetobacter baumannii, n = 3
Experimental: as §4

[5] = tested on: S. aureus ATCC 33591 (MRSA); assay: MIC against resistant strains, Tables 5a-5d; assay type: cell-based; settings: Staphylococcus aureus, n = 3
Experimental: as §4

[6] = tested on: P. aeruginosa 1674623 (MDR); assay: MIC against resistant strains, Tables 5a-5d; assay type: cell-based; settings: Pseudomonas aeruginosa, n = 3
Experimental: as §4

[7] = tested on: E. cloacae 1744299 (ESBL); assay: MIC against resistant strains, Tables 5a-5d; assay type: cell-based; settings: Enterobacter cloacae, n = 3
Experimental: as §4

[8] = tested on: K. pneumoniae CDC0010 (MDR); assay: MIC against resistant strains, Tables 5a-5d; assay type: cell-based; settings: Klebsiella pneumoniae, n = 3
Experimental: as §4

[9] = tested on: A. baumannii CDC0290 (MDR); assay: MIC against resistant strains, Tables 5a-5d; assay type: cell-based; settings: Acinetobacter baumannii, n = 3
Experimental: as §4

E. coli ATCC25922 (WT) = assay: MIC against resistant strains, Tables 5a-5d; assay type: cell-based; settings: Escherichia coli, n = 3
Experimental: as §4

[10] = tested on: P. aeruginosa CDC0248 (MDR); assay: MIC against resistant strains, Tables 5a-5d; assay type: cell-based; settings: Pseudomonas aeruginosa, n = 3
Experimental: as §4

[11] = tested on: K. pneumoniae ATCC BAA-2473 (MDR); assay: MIC against resistant strains, Tables 5a-5d; assay type: cell-based; settings: Klebsiella pneumoniae, ATCCBAA2473, n = 3
Experimental: as §4

[12] = tested on: NIH 3T3 (ATCC CRL-1658) cells; assay: Cytotoxicity, MTT assay; assay type: cell-based; settings: Mus musculus, NIH3T3; NIH 3T3; MTT, 24 hours incubation; read-out: IC50
Experimental: as §1, §2, §3

SMILES	MIC [1] [µg/mL]	MIC (E. coli K12 (ATCC 47076)) [µg/mL]	IC50 [2] [µg/mL]	viability at 24 h (Cytotoxicity, MTT assay) [%]	other results
C[N+](C)(CCCOc1cc(/C=C/c2ccc(/C=C/c3cc(OCCC[N+](C)(C)CC(O)CO)cc(OCCC[N+](C)(C)CC(O)CO)c3)cc2)cc(OCCC[N+](C)(C)CC(O)CO)c1)CC(O)CO (stereo not shown) [Formula OO]	> 64	> 128	> 1020	61	–
C[N+](C)(C)CCCCCCN(CCCCCC[N+](C)(C)C)c1ccc(/C=C/c2ccc(/C=C/c3ccc(N(CCCCCC[N+](C)(C)C)CCCCCC[N+](C)(C)C)cc3)cc2)cc1 [Formula UU]	–	–	43.7	–	–
C[N+](C)(C)CCCCCCN(CCCCCC[N+](C)(C)C)c1ccc(/C=C/c2ccc(/C=C/c3ccc(/C=C/c4ccc(N(CCCCCC[N+](C)(C)C)CCCCCC[N+](C)(C)C)cc4)cc3)cc2)cc1 [Formula VV]	–	–	> 128	64	–
C[C@@H](O)[C@H]1C(=O)N2C(C(=O)O)=C(S[C@@H]3CN[C@H](C(=O)N(C)C)C3)[C@H](C)[C@H]12 [Meropenem, reference compound]	–	–	> 128	96	–

The remaining molecules from weak to strong by MIC (E. coli K12 (ATCC 47076)), led by results:

MIC [1] [µg/mL]	MIC (E. coli K12 (ATCC 47076)) [µg/mL]	SMILES	IC50 [2] [µg/mL]	viability at 24 h (Cytotoxicity, MTT assay) [%]	other results
–	64	C[N+](C)(C)CCCOc1cc(/C=C/c2ccc(/C=C/c3cc(OCCC[N+](C)(C)C)cc(OCCC[N+](C)(C)C)c3)cc2)cc(OCCC[N+](C)(C)C)c1 [Formula X]	> 1020	73	–
16	32	C[N+](C)(CCCN)CCCOc1cc(/C=C/c2ccc(/C=C/c3cc(OCCC[N+](C)(C)CCCN)cc(OCCC[N+](C)(C)CCCN)c3)cc2)cc(OCCC[N+](C)(C)CCCN)c1 [Formula PP]	–	–	–
–	32	CC[N+](C)(C)CCCOc1cc(/C=C/c2ccc(/C=C/c3cc(OCCC[N+](C)(C)CC)cc(OCCC[N+](C)(C)CC)c3)cc2)cc(OCCC[N+](C)(C)CC)c1 [Formula Y]	> 1020	61	–
–	16	CC[N+](C)(C)CCCCOc1cc(/C=C/c2ccc(/C=C/c3cc(OCCCC[N+](C)(C)CC)cc(OCCCC[N+](C)(C)CC)c3)cc2)cc(OCCCC[N+](C)(C)CC)c1.[I-].[I-].[I-].[I-] [Formula P]	–	–	MIC [3]: 2 µg/mL; MIC (E. faecium 1674620 (VRE)): 4 µg/mL; MIC [4]: 64 µg/mL; MIC [5]: 1 µg/mL; MIC [6]: > 64 µg/mL; MIC [7]: 8 µg/mL; MIC [8]: 32 µg/mL; MIC [9]: 64 µg/mL; MIC (E. coli ATCC25922 (WT)): 8 µg/mL; MIC [10]: > 64 µg/mL; MIC [11]: 16 µg/mL
2	16	C[N+](C)(C)CCCCCCOc1cc(/C=C/c2ccc(/C=C/c3ccccc3)cc2)cc(OCCCCCC[N+](C)(C)C)c1OCCCCCC[N+](C)(C)C [Formula WW]	45.4	–	IC50 [12]: 30.9 µg/mL
–	4	CC(C)CCC[N+](C)(C)CCCCOc1cc(/C=C/c2ccc(/C=C/c3cc(OCCCC[N+](C)(C)CCCC(C)C)cc(OCCCC[N+](C)(C)CCCC(C)C)c3)cc2)cc(OCCCC[N+](C)(C)CCCC(C)C)c1.[I-].[I-].[I-].[I-] [Formula V]	–	–	–
